ChEMBL document CHEMBL1201862, “PubChem BioAssay data set” (2004)
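Protocol summary: plate cells (96-well), add compound at 5 concentrations, incubate 48 h, interpolate endpoints linearly. At the GI50, growth is halved.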 Active and inactive are the calls of the source. No stated cut-off is given here; in the data, active = GI50 up to about 1.1 µM and inactive = higher.

Legend:
Experiment in all cases: inhibition of tumour cell growth, NCI panel, 48 h
RPMI-8226 = tested on: RPMI-8226
EKVX = tested on: EKVX
CCRF-CEM = tested on: CCRF-CEM
SF-268 = tested on: SF-268
UACC-62 = tested on: UACC-62
SK-MEL-5 = tested on: SK-MEL-5
OVCAR-8 = tested on: OVCAR-8
ACHN = tested on: ACHN
CAKI-1 = tested on: CAKI-1
M14 = tested on: M14
SK-MEL-2 = tested on: SK-MEL-2
HL-60 = tested on: HL-60
NCI-H23 = tested on: NCI-H23
A549 = tested on: A549
SN12C = tested on: SN12C
LOX IMVI = tested on: LOX IMVI
HT-29 = tested on: HT-29
Malme-3M = tested on: Malme-3M

Measured: GI50

CN(C(=O)C1=CCC2(CC1)OCCO2)c1ccccc1OS(=O)(=O)C(F)(F)F
inactive: RPMI-8226 > 100 µM | EKVX > 100 µM | CCRF-CEM 43.2 µM | SF-268 8.26 µM | UACC-62 > 100 µM | SK-MEL-5 > 100 µM | OVCAR-8 81.5 µM | ACHN > 100 µM | CAKI-1 > 100 µM | M14 > 100 µM | SK-MEL-2 > 100 µM | HL-60 > 100 µM | NCI-H23 > 100 µM | A549 > 100 µM | SN12C > 100 µM | LOX IMVI 59.7 µM

Cn1c(N)c(-c2c3ccccc3nc3ccccc23)c(=O)n(C)c1=O
inactive: RPMI-8226 > 100 µM | EKVX > 100 µM | CCRF-CEM > 100 µM | HT-29 > 100 µM | SF-268 > 100 µM | UACC-62 > 100 µM | SK-MEL-5 > 100 µM | OVCAR-8 > 100 µM | CAKI-1 > 100 µM | M14 > 100 µM | SK-MEL-2 > 100 µM | HL-60 > 100 µM | Malme-3M > 100 µM | NCI-H23 > 100 µM | A549 > 100 µM | SN12C > 100 µM

O=C(c1ccc2c3c(ccc(C(=O)C(F)(F)F)c13)CC2)C(F)(F)F
inactive: EKVX 81.7 µM | HT-29 52.1 µM | SF-268 51.3 µM | UACC-62 79.3 µM | OVCAR-8 47.5 µM | ACHN 58.9 µM | CAKI-1 > 100 µM | M14 34.4 µM | SK-MEL-2 97.5 µM | Malme-3M 52.4 µM | NCI-H23 43.3 µM | A549 57.1 µM | SN12C 92.9 µM | LOX IMVI 55.7 µM

CCOC(=O)C(=O)Nc1nc2c(OCC)cccc2s1
inactive: RPMI-8226 > 100 µM | EKVX > 100 µM | HT-29 > 100 µM | SF-268 > 100 µM | UACC-62 > 100 µM | SK-MEL-5 > 100 µM | OVCAR-8 > 100 µM | ACHN > 100 µM | CAKI-1 > 100 µM | M14 > 100 µM | SK-MEL-2 > 100 µM | HL-60 > 100 µM | Malme-3M > 100 µM | NCI-H23 > 100 µM | A549 > 100 µM | SN12C > 100 µM | LOX IMVI > 100 µM

N#CC(/C(=N/NC(=O)C(=O)NN)C(=O)Nc1nc([N+](=O)[O-])cs1)c1ccc(Cl)cc1 (stereo not given)
inactive: RPMI-8226 > 100 µM | EKVX > 100 µM | CCRF-CEM 89.5 µM | HT-29 > 100 µM | SF-268 > 100 µM | UACC-62 56.5 µM | SK-MEL-5 > 100 µM | OVCAR-8 > 100 µM | ACHN > 100 µM | M14 > 100 µM | SK-MEL-2 > 100 µM | HL-60 > 100 µM | Malme-3M > 100 µM | NCI-H23 > 100 µM | A549 > 100 µM | SN12C > 100 µM | LOX IMVI > 100 µM

COc1ccc(CNc2nc3ccccc3nc2-c2cccs2)cc1OC
inactive: RPMI-8226 72.3 µM | EKVX 59 µM | CCRF-CEM 33.3 µM | HT-29 46.2 µM | SF-268 47.4 µM | OVCAR-8 34 µM | ACHN 23.1 µM | SK-MEL-2 63.7 µM | HL-60 22 µM | Malme-3M 45.1 µM | NCI-H23 25.2 µM | A549 16.2 µM | SN12C 61.5 µM

C#CCN(C)C(=O)N(CC#C)N=O
inactive: RPMI-8226 > 100 µM | EKVX > 100 µM | CCRF-CEM > 100 µM | HT-29 > 100 µM | SF-268 > 100 µM | UACC-62 > 100 µM | SK-MEL-5 > 100 µM | OVCAR-8 > 100 µM | ACHN > 100 µM | M14 > 100 µM | SK-MEL-2 > 100 µM | HL-60 > 100 µM | Malme-3M > 100 µM | NCI-H23 > 100 µM | A549 > 100 µM | SN12C > 100 µM | LOX IMVI > 100 µM

CC(C)(CN1CCCCC1)C(=O)/C=C/c1ccccc1
inactive: RPMI-8226 14.7 µM | EKVX 7.13 µM | CCRF-CEM 5.93 µM | HT-29 7.36 µM | SF-268 13.3 µM | UACC-62 18.9 µM | SK-MEL-5 11.9 µM | OVCAR-8 15.8 µM | ACHN 25.8 µM | CAKI-1 17.3 µM | M14 18.7 µM | SK-MEL-2 14.4 µM | Malme-3M 14.6 µM | NCI-H23 15.1 µM | A549 16.9 µM | SN12C 15.4 µM | LOX IMVI 18.8 µM

Cc1ccc(S(=O)(=O)n2cc(/C=C/C#N)c(/C=C/C#N)c2)cc1
inactive: RPMI-8226 > 100 µM | EKVX 85.1 µM | CCRF-CEM 43.8 µM | HT-29 > 100 µM | SF-268 54 µM | UACC-62 48.9 µM | SK-MEL-5 39.2 µM | OVCAR-8 > 100 µM | ACHN 72.8 µM | M14 89.7 µM | SK-MEL-2 74.3 µM | HL-60 25.5 µM | Malme-3M > 100 µM | NCI-H23 96.6 µM | A549 63.8 µM | SN12C > 100 µM | LOX IMVI 56.6 µM

Cc1ccc(C(=O)NC(C)C)cc1/N=N/N(C)C
inactive: EKVX > 100 µM | HT-29 > 100 µM | SF-268 > 100 µM | UACC-62 > 100 µM | SK-MEL-5 > 100 µM | OVCAR-8 > 100 µM | ACHN > 100 µM | CAKI-1 > 100 µM | M14 > 100 µM | SK-MEL-2 > 100 µM | NCI-H23 > 100 µM | A549 > 100 µM | SN12C > 100 µM | LOX IMVI > 100 µM

CCC(=O)OC1=C(c2ccccc2)Sc2ccc(Cl)cc2-n2cccc21
inactive: RPMI-8226 4.45 µM | EKVX > 10 µM | CCRF-CEM 8.89 µM | HT-29 3.78 µM | SF-268 > 10 µM | UACC-62 8.73 µM | SK-MEL-5 > 10 µM | OVCAR-8 > 10 µM | CAKI-1 > 10 µM | M14 > 10 µM | HL-60 3.95 µM | Malme-3M > 10 µM | NCI-H23 8.2 µM | A549 > 10 µM | SN12C 5.05 µM | LOX IMVI 8.65 µM

CC12CC[C@@H](C(C)(C)O)C1[C@@H](O)CC1(C)C2CCC2[C@@]3(C)CC[C@H](O)C(C)(C)C3C(O)C[C@]21C (stereo not given in full)
inactive: RPMI-8226 21.3 µM | EKVX 13.2 µM | CCRF-CEM 11.3 µM | HT-29 12.6 µM | SF-268 14.9 µM | UACC-62 15.6 µM | SK-MEL-5 4.07 µM | OVCAR-8 16.5 µM | ACHN 13.1 µM | M14 19.9 µM | SK-MEL-2 18.7 µM | HL-60 5.27 µM | Malme-3M 13.8 µM | NCI-H23 16.1 µM | A549 11.5 µM | SN12C 13.4 µM
